Source: ChEMBL document CHEMBL1134870, “Design and synthesis of novel inhibitors of gelatinase B” (Bioorg Med Chem Lett, 2002)

What was measured:
[1] = molecular target: Matrix metalloproteinase-9 (Mus musculus, UniProt P41245); assay: Inhibitory concentration was determined against murine gelatinase B
[2] = molecular target: Matrix metalloproteinase-9 (Mus musculus) (UniProt P41245); assay: Inhibitory activity against murine gelatinase B at 5 mM was determined
Chain of Matrix metalloproteinase-9 (Mus musculus) (P41245 whole entry): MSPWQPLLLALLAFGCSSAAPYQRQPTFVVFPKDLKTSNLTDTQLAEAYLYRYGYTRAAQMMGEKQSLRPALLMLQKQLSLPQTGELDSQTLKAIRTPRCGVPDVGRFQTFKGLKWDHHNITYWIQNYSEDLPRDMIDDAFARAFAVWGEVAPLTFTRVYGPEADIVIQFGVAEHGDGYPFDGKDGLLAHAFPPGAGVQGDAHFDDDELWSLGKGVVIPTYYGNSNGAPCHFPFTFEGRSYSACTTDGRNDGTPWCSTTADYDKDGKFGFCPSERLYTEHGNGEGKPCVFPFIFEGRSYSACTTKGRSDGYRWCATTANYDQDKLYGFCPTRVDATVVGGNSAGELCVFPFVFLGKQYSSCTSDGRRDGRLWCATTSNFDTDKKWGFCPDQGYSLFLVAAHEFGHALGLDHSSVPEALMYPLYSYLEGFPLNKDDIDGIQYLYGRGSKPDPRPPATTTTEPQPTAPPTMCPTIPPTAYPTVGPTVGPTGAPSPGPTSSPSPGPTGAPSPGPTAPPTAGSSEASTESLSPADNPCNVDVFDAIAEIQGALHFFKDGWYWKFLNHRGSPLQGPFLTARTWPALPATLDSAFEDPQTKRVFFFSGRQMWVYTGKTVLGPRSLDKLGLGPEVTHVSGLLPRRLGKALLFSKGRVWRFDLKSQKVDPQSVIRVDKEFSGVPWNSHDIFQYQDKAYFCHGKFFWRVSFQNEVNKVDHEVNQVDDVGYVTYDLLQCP

Chain of Matrix metalloproteinase-9 (P41245 whole entry): as above

Compound	IC50 [1]	inhibition [2]
NCc1nc2ccc(NC(=O)c3ccccc3OCc3ccccc3)cc2[nH]1	48 µM	
CCNCCN		< 5%
NCc1nc2ccc(NCc3ccccc3OCc3ccccc3)cc2[nH]1	13 µM	
Oc1ccccn1		< 5%
OCc1nc2cc(NCc3ccccc3OCc3ccccc3)ccc2[nH]1	> 100 µM	
NCCNCCN		< 5%
NCCc1ccccn1		< 5%
CC(=O)C1CCCC1=O (centres undefined)		76%
CC(=O)NCc1nc2ccc(NCc3ccccc3OCc3ccccc3)cc2[nH]1	> 100 µM	
Cc1nc2cc(NCc3ccccc3OCc3ccccc3)ccc2[nH]1	> 300 µM	
CC(=O)NO		< 5%
NCc1nc2ccc(NCc3ccccc3Sc3ccccc3)cc2[nH]1	56 µM	
Nc1ccccc1N		10%
CC(=O)Nc1nc(C)cs1		< 5%
OCc1nc2ccccc2[nH]1		26%
NCc1nc2ccc(NCc3ccc(OCc4ccccc4)cc3)cc2[nH]1	51 µM	
NCc1ccccn1		75%
NCc1nc2ccc(NC(=O)c3ccc(C(=O)c4ccccc4)cc3)cc2[nH]1	46 µM	
NCc1nc2ccc(NCC3CC=CCC3)cc2[nH]1 (centres undefined)	92 µM	
NCc1nc2ccccc2[nH]1		65%
NCc1nc2cc(NC(=O)/C=C/c3cccnc3)ccc2[nH]1	85 µM	
NCc1nc2cc(N)ccc2[nH]1	> 500 µM	
NCc1cc2cc(NCc3ccccc3OCc3ccccc3)ccc2[nH]1	72 µM	
NCc1nc2cc(NC(=O)/C=C/c3c(F)cccc3F)ccc2[nH]1	75 µM	
NCCN		< 5%
OCc1nc2ccccc2s1		85%
CC(=O)N(Cc1ccccc1OCc1ccccc1)c1ccc2nc(CN)[nH]c2c1	83 µM	
NCc1nc2ccc(NCc3ccccc3)cc2[nH]1	195 µM	
O=C(O)c1ccccc1		< 5%
